Columns and labels:
[1] = test system: U937 cells; assay: Annexin V-PE/7-AAD apoptosis assay; type: cell-based; conditions: Homo sapiens
From the text: To detect apoptosis we used an Annexin V and 7-amino-actinomycin D (7-AAD) based assay. Annexin V is a protein that has high binding affinity to phosphatidylserine, which is translocated from the inner to the outer leaflet of the membrane during early apoptosis. 7-AAD is a DNA dye that stains cells only when the cell membranes are permeable. Thus, double positive events are considered to represent end stage apoptosis and dead cells. […] The results obtained using this assay correlated well with the results of other assays:
Six-well plates were set up with dose responses for each of the 11 hit compounds (artemisinin, artemether, artesunate, dihydroartemisinin, parthenolide, patulin, clioquinol, cryptotanshinone, pyrithione zinc, harmalol, quinalizarin). Each well contained 2.5×10^6 U937 cells in 5 mL cRPMI. To each well, 15 μL of compound in DMSO (or vehicle control) was fTadded, giving final concentrations of 0, 300 nM, and 1, 3, 10, and 30 […] were incubated overnight, at 37° C., 5% CO2/95% air. The compound effects on apoptosis were assessed with an Annexin V-PE/7-amino-actinomycin D (7-AAD) kit (BD Pharmingen™ cat. no. 559763), according to manufacturer protocol, and data were collected with a BD Accuri™ C6 flow cytometer. A gate was set for live cells, and 10,000 gated events were collected per sample. FL-2 versus FL-3 channel dot plots were divided into quadrants and were used to determine percentages of gated cells that were Annexin V^−/7-AAD^− (live, healthy cells), Annexin V^+/7-AAD^− (early apoptosis), or Annexin V^+/7-AAD^+ (late, full apoptosis).
[…] The samples were plotted as Annexin V vs 7-AAD and quadrant-gated. Annexin V^+, 7-AAD^− events are indicative of early apoptosis, in which phosphatidyl serine has flipped to the outer leaflet of the cell membrane. Annexin V^+, 7-AAD^+ (double positive) events indicate cell and nuclear membrane permeabilization, marking late apoptotic events or complete cell death.

[2] = test system: U937 cells; assay: Propidium iodide cell cycle assay; conditions: 24 hour incubation, dose response
[3] = test system: healthy human peripheral blood mononuclear cells (PBMCs); assay: Cell TiterGlo luminescent cell viability assay in PBMCs
[4] = test system: Reh cells; assay: Cross-cell line test for cAMP efflux (F-cAMP); type: cell-based, human; conditions: 37° C., 100 μM MK-571, overnight
Method: (§1) To study the differences in cAMP-removal, cells were loaded with a fluorescent cAMP-analog, and incubated under different conditions: low temperature (4° C.) used to estimate the passive probe “leakage”, and physiological temperature (37° C.) used to assess active removal of the probe.
(§2) Briefly, 15 million cells were loaded with F-cAMP via the osmotic process detailed above. Small volumes of cells were analyzed by flow cytometry post-staining to determine baseline fluorescence values based on MFI. […] The remaining cells were split in half, and one group was treated with a final concentration of 100 μM MK-571, while the other received DMSO-only at an equal volume. These two groups of cells were incubated ˜24 hr according to standard tissue culture conditions (37° C., 5% CO2/95% air). After incubation, cells were analyzed with flow cytometry for FL-1 MFI.
(§3) Because cells loaded with F-cAMP were washed, the resulting concentration gradient could have caused a “passive leak” of the probe. All 6 cell lines appeared to efflux F-cAMP, although to different extents (FIG. 7A a). After incubation at 4° C., the cells lost 20-60% of their fluorescence from the initial F-cAMP loading.

[5] = test system: 697 cells; assay: Cross-cell line test for cAMP efflux (F-cAMP); type: cell-based, human; conditions: 697, 37° C., 100 μM MK-571, overnight
Method: as §1, §2, §3

[6] = test system: Sup B15 cells; assay: Cross-cell line test for cAMP efflux (F-cAMP); type: cell-based, human; conditions: Sup B15, 37° C., 100 μM MK-571, overnight
Method: as §1, §2, §3

[7] = test system: Nalm 6 cells; assay: Cross-cell line test for cAMP efflux (F-cAMP); type: cell-based, human; conditions: Nalm 6, 37° C., 100 μM MK-571, overnight
Method: as §1, §2, §3

[8] = test system: RS4; 11 cells; assay: Cross-cell line test for cAMP efflux (F-cAMP); type: cell-based, human; conditions: 11, 37° C., 100 μM MK-571, overnight
Method: as §1, §2, §3

[9] = test system: MHH Call 3 cells; assay: Cross-cell line test for cAMP efflux (F-cAMP); type: cell-based, human; conditions: MHH Call 3, 37° C., 100 μM MK-571, overnight
Method: as §1, §2, §3

[10] = test system: U937 cells; assay: F-cAMP (Alexa 488-cAMP) efflux assay / high throughput flow cytometry screen; type: cell-based, human; conditions: for Hit status in preliminary screen for cAMP efflux inhibitors: Prestwick/SPECTRUM library screen, U937 cells
Method: U937 cell were loaded with the analog by a method relying on osmotic lysis of pinocytic vesicles (15). After incubation, cell fluorescence decreased to a level that was close to cell autofluorescence.
Briefly, cells were concentrated and washed, with resuspension NF-RPMI (cRPMI without FBS). Cells were then resuspended in an NF-RPMI hypertonic solution containing poly(ethylene glycol) 1,000 (PEG), sucrose, and Alexa Fluor® 488 8-(6-aminohexyl) aminoadenosine 3′,5′-cyclicmonophosphate, bis(triethylammonium) salt, hereafter referred to as F-cAMP, to give a final concentration of 4.76 mM F-cAMP. Cells were incubated for 10 min, room temperature, then centrifuged and resuspended in hypotonic solution (60% cRPMI, 40% sterile water) for 2 min at room temperature to complete the F-cAMP loading. The cells were then washed and resuspended in cRPMI at a final concentration of 4×10^5 cells/mL, and allowed to equilibrate for 2 hours in a 37° C., 5% CO2/95% air incubator.
The remainder of the cells was incubated (37° C., 5% CO2/95% air) in the presence of dimethyl sulfoxide (DMSO) vehicle or compounds overnight. Flow cytometry was used to measure samples, and unstained U937 cells were used to create a gate to mark viable cells. Control and experimental samples were excited with a 488 nm laser and analyzed for FL-1 median fluorescence intensity (MFI) within that gate.
For the high throughput screening assay (HTS), U937 cells were loaded with F-cAMP as described above. Solutions were added to 384-well plates (Greiner 784201) with a Biomek FX Multichannel system (Beckman-Coulter) and/or MicroFlo as follows: 1) 5 μL cRPMI; 2) 100 nL compounds from the Prestwick Chemical Library or Spectrum 2000 Library in DMSO were delivered by pintool (V&P Scientific, San Diego, Calif.), final DMSO concentration=1%; 3) 5 μL F-cAMP cells. Negative control wells contained stained cells with 1% DMSO only. For positive controls, F-cAMP cells were treated with 200 μM MK-571. The final concentration for all conditions was 2000 cells/well. The plates were sealed with foil, and incubated (37° C., 5% CO2/95% air) inverted overnight.
After incubation, the 384-well sample plates were analyzed by CyAn flow cytometers (Beckman-Coulter) configured with HyperCyt high throughput auto-sampler systems (IntelliCyt Albuquerque, N. Mex.). The samples were interrogated with 488 nm lasers to assess FL-1 MCI levels.
Data from the HTS were analyzed with HyperView software (IntelliCyt, Albuquerque, N. Mex.) and gated on untreated, live cell populations and then time-gated to separate data per well. FL-1 MCI values for the samples were analyzed per plate. Those samples which reported MCI values≥2 standard deviations above the plate mean negative control values were considered “hit” compounds.
To validate the identified samples and decrease the number of potential false-positive compounds, the hit compounds were assayed in a high-throughput dose response assay. This assay set up 384-well plates with the same volumes of F-cAMP cells, cRPMI, and DMSO/compounds as in the HTS, with the plate formats containing 10-well dose responses for each hit compound, at final concentrations ranging 30 μM to 4 nM. These plates were also foil-sealed, and incubated inverted overnight. Post-incubation, the dose response plates were analyzed by high throughput flow cytometry, as above. […]

[11] = test system: U937 cells; assay: CellTrace CFSE cell proliferation assay; conditions: 3 μM, 48 hr
[12] = U-937, U937 cells, overnight incubation, dose responses 300 nM to 30 μM, read-out: Calculated EC50 values from Annexin V, 7-AAD double positive events
[13] = U-937, read-out: Calculated EC50 values from Annexin V, 7-AAD double positive events

CO[C@H]1O[C@@H]2O[C@@]3(C)CC[C@H]4[C@H](C)CC[C@@H]([C@H]1C)[C@@]24OO3 [Artemether, artemether] showed an EC50 [1, 12] of 106 µM.

With C[C@@H]1CC[C@H]2[C@@H](C)C(=O)O[C@@H]3O[C@@]4(C)CC[C@@H]1[C@]32OO4 [Artemisinin, artemisinin] the EC50 [1, 12] was 249 µM.

C[C@H]1[C@H](OC(=O)CCC(=O)O)O[C@@H]2O[C@@]3(C)CC[C@H]4[C@H](C)CC[C@@H]1[C@@]24OO3 [Artesunate, artesunate] was tested, and the EC50 [1, 12] was 99.1 µM and the “Effect on cell cycle (PI staining)” value [2] was “increased percentages of cells in G1 or apoptosis in a dose-dependent manner”.

Oc1c(I)cc(Cl)c2cccnc12 [Clioquinol, clioquinol] gave an EC50 [1, 12] of 76.6 µM.

C[C@H]1COC2=C1C(=O)C(=O)c1c2ccc2c1CCCC2(C)C [Cryptotanshinone, cryptotanshinone] was tested, and the EC50 [1, 13] was 53.5 µM and the EC50 ([3]; Homo sapiens, PBMC, read-out: EC50 for decreased PBMC viability) was ~12 µM.

In the case of C[C@H]1[C@@H](O)O[C@@H]2O[C@@]3(C)CC[C@H]4[C@H](C)CC[C@@H]1[C@@]24OO3 [Dihydroartemisinin, dihydroartemisinin], the EC50 [1, 12] is reported as 55.7 µM.

In the case of CC1=NCCc2c1[nH]c1cc(O)ccc21 [Harmalol, harmalol], the EC50 [1, 12] is reported as 283 µM.

For CN(C)C(=O)CCSC(SCCC(=O)O)c1cccc(/C=C/c2ccc3ccc(Cl)cc3n2)c1 (stereo not drawn) [MK-571], the “F-cAMP probe removed in the presence of MK-571” value (from here on “F-cAMP probe removed”) [4] was 30-40%, the “F-cAMP probe removed” value [5] was 60-70% and the “F-cAMP efflux in the presence of MK-571” value [6] was “blocked completely”. For the same compound, the “F-cAMP probe removed” value [7] was 60-70%, the “F-cAMP probe removed” value [8] was 30-40% and the “F-cAMP efflux in the presence of MK-571” value [9] was “blocked completely”. The EC50 ([10]; Homo sapiens, U-937, read-out: EC50 for inhibition of cAMP efflux calculated in assay development, U937 cells loaded with F-cAMP, overnight) was 31 µM and the “Effect on cAMP efflux” value ([10]; U937 cells loaded with F-cAMP, overnight) was “down-modulated cAMP efflux in a dose-dependent manner”.

In the case of O=C1C=C2C(=CCOC2O)O1 (stereo not drawn) [Patulin, patulin], the EC50 [1, 13] is reported as 3.29 µM and the “Effect on cell division (CFSE fluorescence)” value [11] is reported as “arrest of cell division within 48 hr”.

[O-][n+]1ccccc1[S-].[O-][n+]1ccccc1[S-].[Zn+2] [Pyrithione zinc, pyrithione zinc] was tested, and the “Selectivity: concentrations required by leukemic cells versus PBMCs (calculated EC50 values)” value ([3]; viability EC50, leukemic cell lines vs PBMCs) was “exception”.

In the case of O=C1c2ccc(O)c(O)c2C(=O)c2c(O)ccc(O)c21 [Quinalizarin, quinalizarin], the EC50 [1, 12] is reported as 172 µM.

O=C(O)Cc1ccccc1Nc1c(Cl)cccc1Cl [diclofenac] was tested, and the “Hit status in preliminary screen for cAMP efflux inhibitors” value (from here on “Hit status … for cAMP efflux inhibitors”) [10] was “did not come out as hits”.

In the case of CC1=C(CC(=O)O)c2cc(F)ccc2/C1=C\c1ccc([S+](C)[O-])cc1 (stereo not drawn) [sulindac], the “Hit status … for cAMP efflux inhibitors” value [10] is reported as “did not come out as hits”.

With CC[C@@]1(O)C(=O)OCc2c1cc1n(c2=O)Cc2cc3c(CN(C)C)c(O)ccc3nc2-1 [topotecan] the “Hit status … for cAMP efflux inhibitors” value [10] was “did not come out as hits”.
